Test results taken from patent publication US20230094832A1, “ANTIBODY-DRUG CONJUGATE COMPRISING IMMUNE CHECKPOINT INHIBITOR AND EXOSOME SECRETION INHIBITOR, AND PHARMACEUTICAL COMPOSITION COMPRISING SAME” (Research & Business Foundation Sungkyunkwan University, priority 2020, published 2023).

Experiments:
[1] = tested on: melanoma cell line B16F10; assay: Cytotoxicity evaluation by MTT assay; type: cell-based; conditions: B16F10 cells, 24 hours treatment at each concentration, FIG. 4
Protocol: In order to evaluate the cytotoxicity of Ab-VC-AMB prepared in Example 1, a melanoma cell line B16F10 (1×10^4) was attached to a 96-well plate, and after 24 hours, and the cell line was treated with Ab, AMB, AMB+Ab, and Ab-VC-AMB at each concentration, respectively. After 24 hours, the number of living cells was calculated by MTT assay. For this, 5 mg/ml MTT reagent was diluted 1/10 in the medium, and then 200 μl was added to each well of the 96-well plate. After the cells were cultured in an incubator for 1.5 hours, the MTT reagent was removed, and 200 μl of DMSO was added to each well of the 96-well plate. After the cells were cultured at room temperature for 30 minutes, cell viability was calculated by confirming the absorbance at 570 nm.

[2] = tested on: PD-L1 on the surface of exosomes; assay: Exosomal PD-L1 quantified by ELISA; type: in vivo, mice; conditions: plasma exosomes after efficacy study, compared to the other groups, FIG. 10
Protocol: (§1) To evaluate the ability of Ab-VC-AMB prepared in Example 1 to inhibit the secretion of exosomes, after the animal model for which the therapeutic efficacy evaluation was completed was sacrificed, plasma was isolated, and exosomes were isolated and extracted using an exosome isolation kit (Invitrogen total exosome isolation reagent). The amount of protein was measured by performing BCA analysis (bicinchoninic acid assay) on the isolated exosomes. Albumin standards diluted to various concentrations and 150 μl of an unknown sample whose protein amount was not known were put into a 96-well plate, respectively. 150 μl of a working reagent containing bicinchoninic acid from a BCA protein […] kit (Pierce) was placed in each well containing each sample, and the resulting mixture was shaken and mixed well, and then incubated at 37° C. for 2 hours. Thereafter, the protein concentration of exosomes was calculated by measuring the absorbance at 562 nm using a microplate reader.
In addition, PD-L1 on the surface of exosomes, which is a factor known to suppress the activity of T cells, was quantified through ELISA analysis. A 96-well plate was coated with 2 μg/ml PD-L1 antibody incubated at 4° C. for 16 hours […]. […] Absorbance at 450 nm was measured using a microplate reader.

exosomes in plasma = assay: Exosomal total protein amount in plasma exosomes (BCA analysis); type: in vivo, mice; conditions: plasma exosomes after efficacy study, compared to the Ab control, FIG. 9
Protocol: as §1

B16F10 melanoma tumors = assay: Therapeutic efficacy (tumor volume) in B16F10 cancer animal model; type: in vivo; conditions: B16F10 mice, FIGS. 5 and 6
Protocol: (§2) In order to evaluate the therapeutic efficacy of Ab-VC-AMB prepared in Example 1 in a disease animal model, a cancer animal model was produced by subcutaneously inoculating B16F10 (1×10^6 cells), which is a melanoma cell line, into mice and allowing tumors to grow for 10 days (Day 0). Thereafter, on days 1, 4, 7 and 10, Ab-VC-AMB, saline, an antibody (Ab) or AMB was injected intravenously into the cancer animal model (Ab 5 mg/kg, AMB 10 mg/kg, Ab-VC-AMB 5 mg/kg), and then the therapeutic efficacy was evaluated for 11 days.

[3] = parameters: species or system mice; conditions: mouse, in vivo, iv
Protocol: as §2

[4] = tested on: major organs (liver, lungs, spleen, kidneys, and heart) and cancer tissue; assay: Histopathological evaluation by H&E staining; type: in vivo, mice; conditions: cancer tissue compared to the control, FIG. 8
Protocol: A histopathological evaluation was performed by removing major organs and cancer tissue and staining the tissue by a hematoxylin and eosin (H&E) staining method. For this purpose, the major organs (liver, lungs, spleen, kidneys, and heart) and cancer tissue were removed, placed in a cassette, and fixed in a fixative solution. Then, after a paraffin block was prepared, a sample was prepared with a thickness of 6 μm. After the sample was stained with a Harris hematoxylin staining solution and an eosin-phloxine staining solution, the sample was observed through a slide scanner.

SMILES | cytotoxicity (cell viability) [1] | exosomal PD-L1 level [2] | amount of exosomal protein (exosomes in plasma) | volume of cancer compared to the Ab control (B16F10 melanoma tumors; i.v. on days 1, 4, 7 and 10, Ab-VC-AMB 5 mg/kg vs Ab 5 mg/kg, 11 days) | cancer volume compared to the control to which saline was administered (B16F10 melanoma tumors; i.v. on days 1, 4, 7 and 10, Ab-VC-AMB 5 mg/kg, evaluated for 11 days) [%] | changes in body weight (toxicity) [3] | cell death area in the cancer tissue (H&E) [4]
COC(c1ccccc1)(c1ccccc1)[C@H](Oc1nc(C)cc(C)n1)C(=O)O [AMB, ambrisentan, reference compound] | does not have a direct relationship with toxicity affecting cells | – | – | – | – | – | –
COC(c1ccccc1)(c1ccccc1)C(Oc1nc(C)cc(C)n1)C(=O)OCc1ccc(NC(=O)C(CCCNC(N)=O)CC(=O)C(NC(=O)CCCCCN2C(=O)CC(SC)C2=O)C(C)C)cc1 (centres unmarked) [Ab-VC-AMB] | high biocompatibility | tendency to decrease remarkably | statistically significant low amount of exosomal protein compared to the Ab control | about 45% | 24 | does not show toxicity | a large cell death area in the cancer tissue was observed compared to the control
